In US20250237648A1, “BACTERIAL BIOSENSORS FOR DIAGNOSING AND TREATING INFLAMMATION” (Baylor College of Medicine, priority 2022, published 2025):
Values joined by “and” are separate entries in the source; they are usually repeats but may differ in a detail not shown here. Identical values can stand only once. Like-named read-outs stand apart in the source and are kept apart here.

Tests used:
Assay type in all cases: cell-based, Escherichia coli Nissle 1917
[1] = test system: Pykg biosensor (EcN/pBSI0)
Method: To validate that the Pykg is sensitive to zinc but not other metals bound by calprotectin, BSI0 was incubated with 40 μg/mL of calprotectin with or without supplementation of an equimolar amount of zinc, manganese, or iron.
Mixes were similar to the calprotectin induction assays with the addition of zinc sulfate, manganese sulfate, or iron chloride. Concentrations of metals were added in excess of 1× and 10× the binding capacity of 40 μg/mL (1.5 μM) calprotectin. In total, 4 μM and 40 μM of zinc and iron were added, and 2 μM and 20 μM of manganese was added.

ykg promoter = assay: Zur expression optimization for low basal expression of ykg promoter; details: zur driven by constitutive promoter on same plasmid
Description: To increase the dynamic range of the Pykg expression, the high level of basal expression when the operon is not activated by zinc limitation needed to be reduced. It was considered that the basal level of expression was high because the ykg promoter was being expressed from a multicopy plasmid while the Zur repressor was being synthesized from the chromosome, altering their normal stoichiometry. To identify the optimal level of Zur to reduce the basal expression while maintaining the ability to respond to zinc limitation, several constructs were tested in which the zur gene was driven by constitutive promoters of increasing strength on the same plasmid as the ykg promoter (FIG. 2A) . . . . […] Other promoters were either too weak (J23113) to reduce the basal level of promoter expression or were too strong (J23100, J23110) to allow induction of the Pykg upon zinc depletion. Additional studies utilized the J23109 promoter construct, now denoted as pBSI1 (bacterial sensor of inflammation).
To reduce the background of Pygk biosensor, zinc binding transcription factor Zur was inserted into pColE-based sensor construct (pColE1-Pykg-sfgfp) under the control of different constitutive expresison promoters. […] The sensitivity and expression strength of new biosensor constructs was analyzed through fluorescence detection and RT-qPCR.

ykgMO, ent and abt genes = assay: RT-qPCR verification of calprotectin-responsive genes with TPEN; details: 30 μM TPEN, LB media, 30 minutes
Description: FIGS. 1A-1K. Selection of the ykgMO promoter to sense calprotectin levels and sensitivity of ygkMO, ent and abt biosensors to metal starvation. 1A: Sensitivity of ykgMO (50S Ribosomal Protein L36/L31 type B) promoter (Pykg) biosensor to calprotectin; 1B-ID: Sensitivity of ent (1B), abt (1C), and ykg (1D) promoter constructs to TPEN in M9 media detected by Flow Cytometer; 1E: Minimum inhibitory concentration (MIC) of calprotectin on E. coli Nissile1917 (referred to EcN) in LB media; IF: Upregulation of calprotectin responsive promoters with TPEN induction in LB media verified by RT-qPCR; 1G: Sensitivity of ent promoter construct to TPEN in M9 media detected by plate reader; 1H: Sensitivity of abt promoter construct to TPEN in M9 media detected by plate reader; 1I: Sensitivity of ykg promoter construct to TPEN in M9 media detected by plate reader; 1J: Upregulation of calprotectin responsive ykgMO) promoter with TPEN induction in M9 media verified by RT-qPCR; 1K: Quenching of different ions on Pykg biosensor (EcN/pBSI0). Equimolar (1.5 μM) or 10×-excess (15 μM) of Zn^2+, Mn^2+, and Fe^2+ were added to Pykg biosensor co-cultured with 40 μg/mL calprotectin in M9 media. 1.5 μM (equivalent metal binding capacity of 40 μg/mL calprotectin), 3 μM, or 30 μM co-cultured with E. coli Nissle 1917 biosensors in pure culture. Calprotectin only-N=9. […]

[2] = test system: Pykg, Pent and Pabt promoter constructs; assay: TPEN induction of promoter-sfgfp constructs (fluorescence); details: M9 minimal medium
Method: Selection of the ykgMO promoter to sense calprotectin levels. To assess the ykg, ent, and abt promoters as potential sensors of the metal sequestration activity of calprotectin, Pykg, Pent, and Paht were cloned into plasmid pColE1 driving the expression of superfolder GFP (sfgfp). Sensor fluorescence was next analyzed in M9 minimal medium and used metal chelator TPEN to mimic the metal depletion of calprotectin.
EcN biosensor constructs were grown to early log phase (˜0.1 OD600) in M9 media with glucose, and were back diluted to 0.01 OD600 and then grown for ˜4 hours aerobically, until OD600 reached ˜0.15. At this point, cells were kept on ice until analysis on a Becton Dickinson FACScan flow cytometer. Flow cytometry runs were performed in 96 well plates. Briefly, 10-40 μL of cells were added to 1 mL of PBS sheath fluid and run through the flow cytometer for a total of 10000 events. Cells were thresholded on forward/side scatter, and .fsc files were analyzed with the FlowCal software. In short, FlowCal identifies the densest region of cells on the associated scatterplot, and analyzes the fluorescent output of 30% of the cells in this region so as to evaluate a homogenous dataset and remove possible outliers. […] In this case, sfGFP output is reported as molecules of equivalent fluorophores (MEF), and was evaluated on the FL1 channel. […]

[3] = test system: E. coli Nissle 1917 (EcN); assay: Minimum inhibitory concentration of calprotectin on EcN; details: 10^4 EcN cells, overnight, LB media, two-fold dilutions
Method: Identification of E. coli Nissle promoters responsive to calprotectin. […] Currently, fecal calprotectin levels are used as a non-invasive way of monitoring intestinal inflammation, however compliance with such tests is low due to the need for patients to handle their own feces. Therefore, the development of an ingestible bacterial biosensor that would sense and report intestinal inflammation was contemplated. […] To do this the minimal inhibitory concentration of calprotectin incubated with EcN in vitro was first identified.
(§1) It was considered that exposing EcN to a sub-inhibitory concentration of calprotectin that was near the MIC would yield the best opportunity to identify physiologically relevant promoters that respond to calprotectin. The minimal inhibitory concentration of calprotectin (250 μg/mL) was first identified using EcN growth in LB media (FIG. 1E). Therefore, EcN were grown into the mid-exponential phase in LB media and then treated cultures with 125 µg/mL of calprotectin for 30 minutes or without calprotectin as a negative control. As an additional control, a mutant version was used of calprotectin that lacks the ability to bind metals, rendering the protein unable to carry out nutritional immunity.
To explore biosensor promoters that can respond to calprotectin, the transcriptome of EcN treated with the sub-inhibitory amount of calprotectin was analyzed. […]

[4] = test system: ykgMO operon (50S Ribosomal Protein L36/L31 type B); assay: RNA sequencing of calprotectin-treated EcN: ykgMO operon; details: 125 μg/mL calprotectin 30 min, LB, over untreated cells
Method: as §1
(§2) For transcriptome analysis, EcN cells were grown overnight, and then back-diluted 1:100 into 5 mL of LB broth. When cells were grown up to the log phase, the sub-inhibitory amount of calprotectin was added to the cultures at a final concentration of 125 μg/mL. […] RNA was quantified and tested for purity using a Denovix spectrophotometer (Denovix, Wilmington, Delaware). RNA-seq was performed by Applied Biological Materials (ABM) (Richmond, British Columbia, Canada) on an Illumina NextSeq sequencer, at an average of 5 million reads per sample. rRNA depletion and quality check were also performed by ABM. […]

[5] = test system: siderophore enterobactin operon (ent); assay: RNA sequencing of calprotectin-treated EcN: ent operon; details: 125 μg/mL calprotectin 30 min, LB, over untreated cells
Method: as §1, §2

[6] = test system: ATP-binding cassette transporter cluster (abt); assay: RNA sequencing of calprotectin-treated EcN: abt cluster; details: 125 μg/mL calprotectin 30 min, LB, over untreated cells
Method: as §1, §2

[7] = 40 μg/mL calprotectin, equimolar metal, M9

Q: For `O=S(=O)([O-])[O-].[Zn+2]` [Zn, zinc sulfate], which “repression of BSI0 activation in the presence of calprotectin” value (from here on “repression of BSI0 activation”) [1] is on record?
A: totally repress the activation

Q: iron chloride [Fe] was tested. Which “repression of BSI0 activation” value [1, 7] did it give?
A: not

Q: For “J23114: constitutive promoter (SEQ ID NO: 4) driving zur on the ykg promoter plasmid (DNA TTTATGGCTAGCTCAGTCCTAGGTACAATGCTAGC; listed as DNA, chemistry not fully specified)”, which “reduction of basal expression from the ykg promoter” value (ykg promoter) is on record?
A: 100 fold

Q: Which results are given for `c1ccc(CN(CCN(Cc2ccccn2)Cc2ccccn2)Cc2ccccn2)nc1` [TPEN, N,N,N′, N′-tetrakis(2-pyridinylmethyl)-1,2-ethanediamine]?
A: gene upregulation by RT-qPCR (ykgMO, ent and abt genes): upregulated; activation of promoter constructs (sfGFP fluorescence) compared to control [2]: 2-3 fold

Q: manganese sulfate [Mn] was tested. Which “repression of BSI0 activation” value [1, 7] did it give?
A: not

Q: “J23109: constitutive promoter (SEQ ID NO: 5) driving zur; construct denoted pBSI1 (DNA TTTACAGCTAGCTCAGTCCTAGGGACTGTGCTAGC; listed as DNA, chemistry not fully specified)” was tested. Which “reduction of basal expression from the ykg promoter” value (ykg promoter) did it give?
A: 100 fold

B1: calprotectin: Recombinant human calprotectin; neutrophil-source antimicrobial protein that sequesters zinc, manganese and iron (protein, UniProt P05109 1-93; P06702 1-114, looked up)
Protein S100-A8: MLTELEKALNSIIDVYHKYSLIKGNFHAVYRDDLKKLLETECPQYIRKKGADVWFKELDINTDGAVNFQEFLILVIKMGVAAHKKSHEESHKE
Protein S100-A9: MTCKMSQLERNIETIINTFHQYSVKLGHPDTLNQGEFKELVRKDLQNFLKKENKNEKVIEHIMEDLDTNADKQLSFEEFIMLMARLTWASHEKMHEGDEGPGHHHKPGLGEGTP
Q: Which results are given for B1?
A: minimal inhibitory concentration of calprotectin [3]: 256 µg/mL and 250 µg/mL; Fold-Change in Gene Expression, ykgMO [4]: up to 10.3 fold; Fold-Change in Gene Expression, ykgMO ([4]; listed as Calprotectin): 4.20-10.26 fold; Fold-Change in Gene Expression, ent operon [5]: up to 4.8 fold; Fold-Change in Gene Expression, ent operon ([5]; listed as Calprotectin): 4.38-4.78 fold; Fold-Change in Gene Expression, ABC transporter cluster [6]: 3.80-9.44 fold
